From ChEMBL document CHEMBL2321673, “Critical role of a methyl group on the γ-lactone ring of annonaceous acetogenins in the potent inhibition of mitochondrial complex I” (Bioorg Med Chem Lett, 2013) come the findings set out here.

For this test, the target named is NADH-ubiquinone oxidoreductase chain 1 (Bos taurus, UniProt P03887). The test is described as follows: Inhibition of bovine heart mitochondrial complex 1.
Sequence of NADH-ubiquinone oxidoreductase chain 1 (P03887 whole entry): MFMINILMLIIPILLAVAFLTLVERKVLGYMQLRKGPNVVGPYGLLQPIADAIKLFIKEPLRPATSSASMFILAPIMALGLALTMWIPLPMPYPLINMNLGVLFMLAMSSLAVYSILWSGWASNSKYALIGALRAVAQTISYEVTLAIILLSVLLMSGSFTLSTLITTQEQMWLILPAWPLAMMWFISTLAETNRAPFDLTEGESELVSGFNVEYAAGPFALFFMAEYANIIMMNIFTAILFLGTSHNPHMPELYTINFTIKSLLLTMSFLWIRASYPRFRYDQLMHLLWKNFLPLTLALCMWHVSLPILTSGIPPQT
As for `CCCCCCCCCCCC[C@@H](O)[C@H]1CC[C@H]([C@H](O)CCCCCCCCCCCCC2=C[C@H](CF)OC2=O)O1`, the midpoint of inhibition, the IC50, lay at 2.9 nM. As to `CCCCCCCCCCCC[C@@H](O)[C@H]1CC[C@H]([C@H](O)CCCCCCCCCCCCC2=C[C@H](C(F)(F)F)OC2=O)O1`, 310 nM corresponded to half-maximal inhibition (IC50). Under `CCCCCCCCCCCC[C@@H](O)[C@H]1CC[C@H]([C@H](O)CCCCCCCCCCCCC2=C[C@@H](C)OC2=O)O1` stands 270 nM; under `CCCCCCCCCCCC[C@@H](O)[C@H]1CC[C@H]([C@H](O)CCCCCCCCCCCCC2=C[C@H](C(F)F)OC2=O)O1`, 31 nM. Then `CCCCCCCCCCCC[C@@H](O)[C@H]1CC[C@H]([C@H](O)CCCCCCCCCCCCC2=C[C@@H](C(F)(F)F)OC2=O)O1`, with 570 nM; and `CCCCCCCCCCCC[C@@H](O)[C@H]1CC[C@H]([C@H](O)CCCCCCCCCCCCC2=C[C@H](C)OC2=O)O1` [REL-SOLAMIN], with 2.1 nM.
